Experimental findings from patent publication US20060063784A1, “Method of using substituted pyrazolo [1,5-a] pyrimidines” (priority 2004, published 2006) are described below.

Like-named read-outs stand apart in the source and are kept apart here. Bounds are passed on as bounds.

In test [1] the test system is 80S14 (p21-deficient) cells. The test is described as follows: Cytotoxicity assay using isogenic cell lines: IC50 in 80S14 (p21-deficient) cells, SRB. In kind it is cell-based, human. The method, boiled down: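 80S14 (p21-deficient) cells seeded at 12,000 cells/well overnight, then exposed 5 days at 37 °C to serial dilutions (5 pM–50 μM or 170 pg/ml–10 μg/ml). TCA-fixed, sulforhodamine B-stained, absorbance at 560 nm; IC50 taken from cytotoxicity curves versus untreated controls.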

In the next test the test system is LoVo Colon cell line. The experiment in a line: Cytotoxicity assay using LoVo colon cell line, SRB. In kind it is cell-based. Particulars: read-out: Inhibition of LoVo. The method, boiled down:
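LoVo cells (4000/well, RPMI 1640 with 10% FBS, 37 °C, 7% CO2) seeded overnight, then exposed 4 days to serial dilutions spanning 5 pM-20 μM or 170 pg/ml-10 μg/ml. Survival by SRB staining; IC50 from curves relative to untreated controls.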

[2] abbreviates: Homo sapiens, 120 h, 80S14 (p21-deficient) cells, 5 days, SRB, class symbols, read-out: IC50 for 80S14.
Where [3] appears, read: Homo sapiens, 96 h, Cellular activity in LoVo cell, 4 days incubation, SRB.
Setting [4] is: Homo sapiens, 80S14, 120 h, read-out: IC50 for 80S14 (uM).
Where [5] appears, read: Homo sapiens, 120 h, 80S14 p21-deficient cells, 5 days incubation, SRB, read-out: IC50 for 80SI4.
Setting [6] is: Homo sapiens, 96 h, LoVo colon cells, 4 days incubation, SRB.

For the compound `COc1cc(-c2cnn3c(-c4cccc(NC(=O)CC(C)C)c4)ccnc23)cc(OC)c1OC` [Example 467, 3-Methyl-N-{3-[3-(3,4,5-trimethoxyphenyl)pyrazolo[1,5-a]pyrimidin-7-yl]phenyl}butanamide], the IC50 was less than 1 µM in test [1] (setting [2]) and less than 0.1 µM with LoVo Colon cell line (setting [3]).

Consider `O=C(O)CCCC(=O)Nc1cccc(-c2ccnc3c(C(=O)c4cccs4)cnn23)c1` [Example 444, 5-Oxo-5-({3-[3-(thien-2-ylcarbonyl)pyrazolo[1,5-a]pyrimidin-7-yl]phenyl}amino)pentanoic acid], for which the IC50 in test [1] (setting [2]) is 10 to 50 µM; in the test on LoVo Colon cell line (setting [3]), 1 to 20 µM.

`Cc1ccc(-c2ccnc3c(C(=O)c4cccs4)cnn23)cc1NC(=O)OC(C)C` [Example 314, Isopropyl 2-methyl-5-[3-(2-thienylcarbonyl)pyrazolo[1,5-a]pyrimidin-7-yl]phenylcarbamate]: the IC50 in test [1] (setting [4]) is less than 1 µM; with LoVo Colon cell line (Homo sapiens, LoVo, 96 h), less than 0.1 µM.

Turning to `O=C(NCC1CCCCC1)Nc1cccc(-c2ccnc3c(C(=O)c4cccs4)cnn23)c1` [Example 160, N-(cyclohexylmethyl)-N′-{3-[3-(thien-2-ylcarbonyl)pyrazolo[1,5-a]pyrimidin-7-yl]phenyl}urea], the IC50 lay in the range of 1 to 10 µM in test [1] (setting [5]) and 0.1 to 1 µM in the test with LoVo Colon cell line (setting [6]).

Take `CC(C)CC(=O)Nc1cc(-c2ccnc3c(C(=O)c4cccs4)cnn23)ccc1Cl` [Example 313, N-{2-Chloro-5-[3-(2-thienylcarbonyl)pyrazolo[1,5-a]pyrimidin-7-yl]phenyl}-3-Methylbutanamide]: the IC50 in test [1] (setting [4]) was less than 1 µM; in the test on LoVo Colon cell line (Homo sapiens, LoVo, 96 h), less than 0.1 µM.

For `CC(C)(C)COC(=O)Nc1cccc(-c2ccnc3c(C(=O)c4cccs4)cnn23)c1` [Example 17, neopentyl 3-[3-(thien-2-ylcarbonyl)pyrazolo[1,5-a]pyrimidin-7-yl]phenylcarbamate], the IC50 in test [1] (setting [5]) was less than 1 µM; with LoVo Colon cell line (setting [6]), less than 0.1 µM.

Consider `O=C(CC1CCNCC1)Nc1cccc(-c2ccnc3c(C(=O)c4cccs4)cnn23)c1` [Example 393, 2-Piperidin-4-yl-N-{3-[3-(thien-2-ylcarbonyl)pyrazolo[1,5-a]pyrimidin-7-yl]phenyl}acetamide], for which the IC50 in test [1] (setting [2]) was in the range of 1 to 10 µM; with LoVo Colon cell line (setting [3]), 0.1 to 1 µM.

On to `O=C(O)CCc1ccc(-c2cccc(-c3ccnc4c(C(=O)c5cccs5)cnn34)c2)cc1` [Example 457, 3-{3′-[3-(Thien-2-ylcarbonyl)pyrazolo[1,5-a]pyrimidin-7-yl]-1,1′-biphenyl-4-yl}propanoic acid], for which the IC50 in test [1] (setting [2]) lay in the range of 10 to 50 µM; with LoVo Colon cell line (setting [3]), 0.1 to 1 µM.

Regarding `O=C(c1cccs1)c1cnn2c(-c3cccc(NCC4CCCCC4)c3)ccnc12` [Example 379, (7-{3-[(Cyclohexylmethyl)amino]phenyl)pyrazolo[1,5-a]pyrimidin-3-yl)(thien-2-yl)methanone], the IC50 was less than 1 µM in test [1] (setting [2]) and less than 0.1 µM in the test on LoVo Colon cell line (setting [3]).

Regarding “N-{3-[3-(thien-2-ylcarbonyl)pyrazolo[1,5-a]pyrimidin-7-ylphenyl}morpholne-4-carboxamide [Example 157]”, the IC50 lay within 1 to 10 µM in test [1] (80S14 p21-deficient cells, 5 days incubation, SRB, read-out: IC50 for 80SI4) and 0.1 to 1 µM with LoVo Colon cell line (LoVo colon cells, 4 days incubation, SRB).

As for `CC(C)NC(=S)Nc1cccc(-c2ccnc3c(C(=O)c4cccs4)cnn23)c1` [Example 389, N-Isopropyl-N′-{3-[3-(thien-2-ylcarbonyl)pyrazolo[1,5-a]pyrimidin-7-yl]phenyl}thiourea], the IC50 in test [1] (setting [2]) is less than 1 µM; in the test on LoVo Colon cell line (setting [3]), less than 0.1 µM.

On to “Thienylcarbonyl)pyrazolo[1,5-a]pyrimidin-7-yl]phenyl}cyclobutanecarboxamide [Example 275]”, for which the IC50 in test [1] (80S14 (p21-deficient) cells, 5 days, SRB, class symbols, read-out: IC50 for 80S14) is less than 1 µM; with LoVo Colon cell line (Cellular activity in LoVo cell, 4 days incubation, SRB) it was less than 0.1 µM.

Take `O=C(O)CCC(=O)Nc1cccc(-c2ccnc3c(C(=O)c4cccs4)cnn23)c1` [Example 442, 4-Oxo-4-({3-[3-(thien-2-ylcarbonyl)pyrazolo[1,5-a]pyrimidin-7-yl]phenyl}amino)butanoic acid]: the IC50 lay within 10 to 50 µM in test [1] (setting [2]) and 1 to 20 µM in the test on LoVo Colon cell line (setting [3]).
